The nature of data set [1]: Estimation of the interaction between oleic acid and the test substance. Format: physicochemical.
Experimental: Several solubilizing compounds were tested in aqueous medium for their potential to solubilize a reference fatty acid, namely oleic acid.
(§1) In the following tests oleic acid was mixed with the test substances in H2O, Subsequently, log P and pH were measured and the solubility of the test substance in H2O was estimated together with an estimation of the interaction between oleic acid and the test substance according to the scheme shown below.
(§2) The solutions were rested for 1 h and pH was measured. In case of incomplete dissolution and a pH below 7 a 1M NaOH solution was added dropwise until turbidity resolved. Then the mixtures were stirred or shaken. In order to assess the stability of the obtained micro or nanoemulsion, the solution were heated for 1 hour to 60° C. and cooled to room temperature. An other part of the clear solution was stored over night at 4° C. and then rewarmed to room temperature. Thereafter solutions were analysed for solid formation, residual oil, viscosity, turbidity, and DLS measurements were performed.
Estimation of the Interaction Between Oleic Acid and the Test Substance: • X=Interaction between oleic acid and the test substance • (X)=Interaction between oleic acid and test substance.
Data set [2] is described as follows: Dynamic laser light scattering (DLS) of oleic acid micro-/nanoemulsions. The data set is classed as physicochemical. The conditions noted are these: for Mean Size by Intensity: DLS, emulsion with oleic acid; for Part: percentage of the peak in the sample.
Experimental: as §2
For DLS measurements a Zetasizer Nano S from Malvern (USA) was used. All measurements were repeated three times undiluted, or 1:10 and 1:100 diluted by water. For the measurements the viscosity of water and the refractory index of water were used.
Peak Maximum by Intensity: Size is directly determined from the measurement without a weighting of volume or particle number.
Peaks are presented corresponding to their percentage in the sample.
Ratio of peak maxima: Percentual distribution of particle sizes.
The nature of data set [3]: pH of aqueous solution of solubilizing compound mixed with oleic acid. The data set is classed as physicochemical. The settings on record: solubilizing compound in water with 0.833 mol equivalents of oleic acid.
Experimental: as §1
The solutions were rested for 1 h and pH was measured. In case of incomplete dissolution and a pH below 7 a 1M NaOH solution was added dropwise until turbidity resolved. Then the mixtures were stirred or shaken.
Data set [4] is described as follows: log P of the test substance.
Experimental: as §1
Data set [5] can be described thus: Estimation of solubility of the test substance in H2O. The data set is classed as physicochemical.
Experimental: as §1, §2
Estimation of Solubility: • X=Compound is completely dissolved • (X)=Compound is partially dissolved • ((X))=Compound is not dissolved (visual appearance) but there is a change in pH. Therefore it is assumed that at least a small part is dissolved. • −=insoluble
Data set [6] addresses fatty acids bound to albumin (Homo sapiens, UniProt P02768). Kind of data set: Liberation of 3H-labeled oleic acid bound to albumin, extraction with n-hexane. The settings on record: identical procedure.
Text: The capacity of arginine to liberate fatty acids bound to albumin was investigated by ^3H-labeled oleic acid.
The conditions of data set [7]: cited from earlier work.
The conditions of data set [8]: cited from earlier work. The source holds these as a separate data set.
The conditions of data set [9]: n-octanol and water; cited from earlier work.
Data set [10] is described as follows: Influence of the pH on the solubility of oleic acid in aqueous medium. Format: physicochemical.
Experimental: At the beginning the influence of the pH on the solubility of oleic acid in aqueous medium was tested. These tests were conducted in order to exclude the possibility that the observed solubility of oleic acid was due to pH changes and not primarily because of the interaction of functional groups.
Where [11] appears, read: water (H2O), test substance mixed with oleic acid.

The source of these data is patent publication US9127233B2, “Device and method for solubilizing, separating, removing and reacting carboxylic acids in oils, fats, aqueous or organic solutions by means of micro-or nanoemulsification” (priority 2010, dated 2015).

Like-named read-outs stand apart in the source and are kept apart here. Where a SMILES comes first, the peptide text is derived from it.

Sequence of fatty acids bound to albumin (P02768 25-609): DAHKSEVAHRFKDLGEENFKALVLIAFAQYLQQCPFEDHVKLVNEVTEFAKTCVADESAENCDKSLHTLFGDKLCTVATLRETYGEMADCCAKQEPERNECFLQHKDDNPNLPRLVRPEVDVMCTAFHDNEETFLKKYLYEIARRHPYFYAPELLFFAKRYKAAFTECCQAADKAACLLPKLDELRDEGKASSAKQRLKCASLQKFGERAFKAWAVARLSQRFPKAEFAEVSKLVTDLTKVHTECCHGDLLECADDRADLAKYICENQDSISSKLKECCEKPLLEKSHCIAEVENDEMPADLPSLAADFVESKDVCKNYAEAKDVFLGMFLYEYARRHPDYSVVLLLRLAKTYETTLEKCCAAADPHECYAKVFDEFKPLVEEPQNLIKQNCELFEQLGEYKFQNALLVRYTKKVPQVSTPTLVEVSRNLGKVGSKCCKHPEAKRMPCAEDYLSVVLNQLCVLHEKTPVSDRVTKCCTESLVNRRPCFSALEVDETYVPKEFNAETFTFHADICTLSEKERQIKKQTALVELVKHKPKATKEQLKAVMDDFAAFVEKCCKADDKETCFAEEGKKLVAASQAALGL
Experimental for physchem: as §1

As for `Cc1ccccc1NC(=N)NC(=N)N` [1-(o-Tolyl)biguanide], the “Interaction with Oleic Acid” value in data set [1] is “X, E”. Further, in [2], the “Mean Size by Intensity” value is given as 850 nm and the Part was found to be 95.5%. In [3], the pH is 11.53. The same molecule yielded a logP in data set [4] (setting [11]) of 1.41. In [5], the “Dissolved (H2O)” value is reported as “(X)”.
In turn, `C[C@H](NC(=O)[C@H](Cc1ccccc1)NC(=O)[C@@H](N)CCCNC(=N)N)C(=O)O` [Arg-Phe-Ala acetate] (H-Arg-Phe-Ala-OH; N-terminus and C-terminus assumed) had a logP of -3.6.
On to `CN/C(=N\[N+](=O)[O-])NCc1cnc(Cl)s1` [Clothianidine, (E)-1-(2-chlor-1,3-thiazol-5-ylmethyl)-3-methyl-2-nitroguanidine], for which the “Interaction with Oleic Acid” value in [1] is on record as “X, E”. In [2], the “Mean Size by Intensity” value came out at 153 nm and the Part was 53.9%. The pH in data set [3] worked out at 9.81. In data set [4], this molecule registered a logP of -2.03. For the same molecule, in data set [5], the “Dissolved (H2O)” value is reported as “(X)”.
With `N=C(N)NCCC[C@H](NC(=O)CN)C(=O)O` [Gly-Arg] (H-Gly-Arg-OH; N-terminus and C-terminus assumed), the logP was -5.06.
In turn, `NCC(=O)N[C@@H](Cc1c[nH]cn1)C(=O)O` [Gly-His] (H-Gly-His-OH; N-terminus and C-terminus assumed) came in with a logP of -2.42.
Molecule `N=C(N)NCCC[C@H](NC(=O)[C@@H](N)Cc1c[nH]cn1)C(=O)O` [His-Arg] (H-His-Arg-OH; N-terminus and C-terminus assumed) displayed a logP of -5.74.
For `Cl.N[C@@H](Cc1c[nH]cn1)C(=O)O.O` [Histidine hydrochloride monohydrate], the “Interaction with Oleic Acid” value in [1] is “X, E”. Besides, in [2], the “Mean Size by Intensity” value stood at 647 nm and the Part is recorded as 81.9%. The same molecule displayed a logP in “physchem” of -4.37. In addition, the pH in data set [3] is 9.30. In data set [6], the “reduction of residual fatty acids as compared to arginine” value (“reduction of residual fatty acids” below) was “significantly less”.
Molecule `N=C(N)NCCCC(N)C(=O)O` [L-Arginine, 2-amino-5-guanidinopentanoic acid] registered a logP in the data set “physchem” of -3.52. Besides, the pKa in [7] (amino group) was 8.99; in [7] (carboxyl group), 1.82.
As to `NC(=O)CC[C@H](N)C(=O)O` [L-Glutamin, reference compound], in data set [1], the “Interaction with Oleic Acid” value was “((X))”. Also, the logP in the data set “physchem” was -2.05. In addition, the pH in data set [3] came out at 8.37. Further, in data set [5], the “Dissolved (H2O)” value is given as “(X)”. Further, in [6], the “reduction of residual fatty acids” value is reported as “significantly less”.
As to `NCCCC[C@H](N)C(=O)O` [L-Lysine], the “Interaction with Oleic Acid” value in data set [1] is given as “X, E”. Moreover, in data set [2], the “Mean Size by Intensity” value is 133 nm and the Part stood at 95.6%. Further, in [3], the pH stood at 9.56. The molecule also registered a logP in data set [4] (setting [11]) of -3.42. Further, in [6], the “reduction of residual fatty acids” value was “significantly less”.
Molecule `NCCCC[C@H](N)C(=O)N[C@@H](CCCN=C(N)N)C(=O)O` [Lys-Arq acetate] (H-Lys-Arg-OH) had a logP of -5.06.
Still for that read-out and setting: the figure for `C[C@@H](O)[C@H](N)C(=O)N[C@@H](CCCCN)C(=O)N1CCC[C@H]1C(=O)N[C@@H](CCCNC(=N)N)C(=O)O` [Thr-Lys-Pro-Arq (Tuftsin)] (H-TKPR-OH; N-terminus and C-terminus assumed) is -3.98.
Consider `NC(=O)C[C@H](N)C(=O)O` [asparagine, reference compound], for which the “reduction of residual fatty acids” value in data set [6] was “significantly less”.
For `CO/C=C(/C(=O)OC)c1ccccc1Oc1cc(Oc2ccccc2C#N)ncn1` [azoxystrobin], in data set [8], the “mg soluble in water” value was 6.7 mg/L.
As to `[Co+2].c1ccc2c(c1)-c1nc-2nc2[n-]c(nc3nc(nc4[n-]c(n1)c1ccccc41)-c1ccccc1-3)c1ccccc21` [co-phthalocyanine], the “mg soluble in water” value in [8] was “unsoluble”.
In the case of `CCCCCCCC(=O)O` [octanoic acid], the “log KOW” value in [9] is reported as 3.05.
For `CCCCCCCC/C=C\CCCCCCCC(=O)O` [oleic acid, cis-9-octadecenoic acid], the “solubility of oleic acid in aqueous medium” value is given as “formation of a solid precipitate” in data set [10] (pH 14), “no interaction” in [10] (pH range of 9-12 at room temperature) and “begins to dissolve” in data set [10] (starting at pH 13).
As to `C1=Cc2nc1c(-c1ccccc1)c1nc(c(-c3ccccc3)c3ccc([nH]3)c(-c3ccccc3)c3ccc([nH]3)c2-c2ccccc2)C=C1` [tetraphenylporphyrin], the “mg soluble in water” value in [8] was 2 mg/L.
Turning to sudan red, in data set [8], the “mg soluble in water” value was “unsoluble”.

For orientation: logP means the decadic logarithm of the partition coefficient of the neutral form, usually between octanol and water. Lower therefore signals lower lipophilicity. As usually defined, the pKa is the negative logarithm of the acid dissociation constant.
